# Assay results as given in patent US5334619A, “Inhibition of postharvest fruit decay by 2-nonanone” (priority 1993, dated 1994).
# Key:
# [1] = test system: strawberries (cv. `Ozark Beauty`); test: Fruit damage rating of inoculated strawberry fruit exposed to volatile compounds; design: species or system Fragaria ananassa, Duchesne; conditions: 0.4 μl/ml vapor, 10 days, 10° C.; mean, 0 = intact, undamaged fruit, 3 = whole fruit necrotic and watersoaked
# Protocol: (§1) Untreated red raspberries (cv. `Heritage`) and strawberries (cv. `Ozark Beauty`) were harvested and used the same day. Berries were selected on the basis of uniform size, color, firmness, and absence of evidence of defects or diseases.
# (§2) A bioassay system was developed to test the effects of the volatile compounds on fungal growth both on intact fruit and on V-8 juice medium. The apparatus consisted of 75 ml glass jars into which either fruit or sterilized V-8 juice medium (10 ml) were added. These jars were placed in 275 ml airtight glass jars with aluminum foil cap liners. The bottom of each 275 ml jar was fitted with a 5.5 cm filter paper disk (Whatman No. 1) for application of the appropriate amount of test compound. The total gas headspace in the larger jars after the addition of all components was 250 ml.
# (§3) Red raspberries and strawberries were rinsed with sterile distilled water and allowed to dry before inoculation. The fruit was sprayed with the spore suspension to runoff. Single red raspberries or strawberries were placed in the 75 ml jars, and 100 μl each of a single test compound was added to the filter paper on the bottom of a 275 ml jar. The 275 ml jar was then sealed. Fruit were kept at 10° C. in the dark for 10 days then rated for development of fungi and for damage to the fruit due to the treatments. […]
# [2] = test system: C. gloeosporioides; test: Radial growth of cultures with 2-nonanone in the growth medium; assay type: cell-based; conditions: Colletotrichum gloeosporioides, read-out: Fungal Growth (% of control), C. gloeosporioides
# Protocol: (§4) Fungal cultures of A. alternata and B. cinerea were obtained from the Agricultural Research Service, NRRL Culture Collection in Peoria, Ill. […] An isolate of C. gloeosporioides pathogenic on blueberries was obtained from the USDA/ARS Cranberry and Blueberry Research Center, Chatsworth, N.J. All cultures were maintained at 24° C. and 95% relative humidity on V-8 juice agar supplemented with 0.3% CaCO3 and adjusted to pH 5.8. Spores of each fungus were removed from sporulating cultures by carefully brushing the surface of the media with a glass rod and suspending the spores in sterile water. The concentrations of spores in the suspensions were adjusted to concentrations of 10^6 to 10^7 spores/ml. These suspensions were mixed together to form a composite suspension which was used to inoculate all the fruit in a given experiment. 2-Nonanone was assayed as a medium component by adding an appropriate amount to cooled V-8 juice media in 9.0 cm plastic petri dishes. Experiments were initiated by placing 7 mm plugs of mycelia in the center of the petri dishes. As the cultures were nearly circular, the radii (from the inoculum plug to one typical point on the growing margin) of the cultures were measured and expressed as a percentage of the control. The treatment was replicated five times and the data were treated by analysis of variance.
# [3] = test system: A. alternata; test: as above; assay type: cell-based; conditions: Alternaria alternata, read-out: Fungal Growth (% of control), A. alternata
# Protocol: as §4
# [4] = test system: B. cinerea; test: as above; assay type: cell-based; conditions: Botrytis cinerea, read-out: Fungal Growth (% of control), B. cinerea
# Protocol: as §4
# [5] = test system: red raspberries (cv. `Heritage`); test: Fruit damage rating of inoculated raspberry fruit exposed to volatile compounds; design: species or system Rubus idaeus L.; conditions: 0.4 μl/ml vapor, 10 days, 10° C.; mean, 0 = intact, undamaged fruit, 3 = whole fruit necrotic and watersoaked
# Protocol: as §1, §2, §3
# [6] = test system: C. gloeosporioides; test: Treatment of isolated cultures with 2-nonanone vapor; assay type: cell-based, Colletotrichum gloeosporioides; conditions: 7 days, 10° C., 0 = no growth, 4 = media completely covered
# Protocol: (§5) Fungal cultures of A. alternata and B. cinerea were obtained from the Agricultural Research Service, NRRL Culture Collection in Peoria, Ill. […] An isolate of C. gloeosporioides pathogenic on blueberries was obtained from the USDA/ARS Cranberry and Blueberry Research Center, Chatsworth, N.J. All cultures were maintained at 24° C. and 95% relative humidity on V-8 juice agar supplemented with 0.3% CaCO3 and adjusted to pH 5.8. Spores of each fungus were removed from sporulating cultures by carefully brushing the surface of the media with a glass rod and suspending the spores in sterile water. The concentrations of spores in the suspensions were adjusted to concentrations of 10^6 to 10^7 spores/ml. These suspensions were mixed together to form a composite suspension which was used to inoculate all the fruit in a given experiment.
# as §2
# (§6) The fungi assayed against included B. cinerea, C. gloeosporioides and A. alternata. The compound was bioassayed as a volatile using the apparatus described in Example 1 by placing 7 mm diameter plugs of mycelia from actively-growing 1 week-old cultures on V-8 juice media in the 75 ml jars, with the appropriate amount (0, 5, 10, 25 or 100 μl ) of compound applied to the filter paper on the bottom of the larger jar. Assuming complete volatilization, these amounts would produce a nonanone concentration within the headspace of 0.02, 0.04, 0.10, and 0.40 μL/ml, respectively. The sealed jars were then placed in a growth chamber in the dark at 10° C. for 7 days. Due to growth of fungi limited to the plug in many cases and the difficulty of accurately measuring the fungal growth in the jars, a rating system was developed as follows: 0, no growth of fungi, including on plug; 1, growth on plug only; 2, small amount of fungal growth on medium; 3, most of medium covered with fungal mycelia; and 4, all of medium covered. The treatment was replicated three times and the data were treated by statistical analysis of variance.
# [7] = test system: A. alternata; test: as above; assay type: cell-based, Alternaria alternata; conditions: 7 days, 10° C., 0 = no growth, 4 = media completely covered
# Protocol: as §5, §2, §6
# [8] = test system: rat; conditions: cited from earlier work
# [9] = test system: composite spore suspension of A. alternata, B. cinerea and C. gloeosporioides on strawberries; test: Fungal growth on inoculated strawberry fruit exposed to volatile compounds; conditions: 0.4 μl/ml vapor, 10 days, 10° C.; mean, 0 = no fungi present, 3 = fruit completely covered by fungal mycelia
# Protocol: as §5, §1
# (§7) A bioassay system was developed to test the effects of the volatile compounds on fungal growth both on intact fruit and on V-8 juice medium. The apparatus consisted of 75 ml glass jars into which either fruit or sterilized V-8 juice medium (10 ml) were added. […]
# [10] = test system: composite spore suspension of A. alternata, B. cinerea and C. gloeosporioides on red raspberries; test: Fungal growth on inoculated raspberry fruit exposed to volatile compounds; conditions: 0.4 μl/ml vapor, 10 days, 10° C.; mean, 0 = no fungi present, 3 = fruit completely covered by fungal mycelia
# Protocol: as §5, §1, §7
# [11] = test system: B. cinerea; test: Treatment of isolated cultures with 2-nonanone vapor; assay type: cell-based, Botrytis cinerea; conditions: 7 days, 10° C., 0 = no growth, 4 = media completely covered
# Protocol: as §5, §2, §6
smiles,measurement,setting,value
"CCCCCCCC(C)=O [2-Nonanone, 2-nonanone]","Fruit damage rating, Strawberry",[1],1.7
same,activity at 0.01 %,[2]; 0.01% in V-8 juice medium,100%
same,activity at 0.1 %,[2]; 0.10% in V-8 juice medium,95.7%
same,activity at 1 %,[2]; 1.00% in V-8 juice medium,0%
same,activity at 0.01 %,[3]; 0.01% in V-8 juice medium,85.2%
same,activity at 0.1 %,[3]; 0.10% in V-8 juice medium,48.7%
same,activity at 1 %,[3]; 1.00% in V-8 juice medium,0%
same,activity at 0.01 %,[4]; 0.01% in V-8 juice medium,100%
same,activity at 0.1 %,[4]; 0.10% in V-8 juice medium,83%
same,activity at 1 %,[4]; 1.00% in V-8 juice medium,0%
same,"Fruit damage rating, Raspberry",[5],2.0
same,"Fungal Growth Rating, C. gloeosporioides",[6]; vapor phase 0.02 μl/ml,2.0
same,"Fungal Growth Rating, C. gloeosporioides",[6]; vapor phase 0.04 μl/ml,0.6
same,"Fungal Growth Rating, C. gloeosporioides",[6]; vapor phase 0.10 μl/ml,0.0
same,"Fungal Growth Rating, C. gloeosporioides",[6]; vapor phase 0.40 μl/ml,0.0
same,"Fungal Growth Rating, A. alternata",[7]; vapor phase 0.02 μl/ml,2.7
same,"Fungal Growth Rating, A. alternata",[7]; vapor phase 0.04 μl/ml,1.3
same,"Fungal Growth Rating, A. alternata",[7]; vapor phase 0.10 μl/ml,0.0
same,"Fungal Growth Rating, A. alternata",[7]; vapor phase 0.40 μl/ml,0.0
same,oral rat LD50,[8],3200 mg/kg
same,"Fungal Rating, Strawberry",[9],0.0
same,"Fungal Rating, Raspberry",[10],0.0
same,"Fungal Growth Rating, B. cinerea",[11]; vapor phase 0.02 μl/ml,1.0
same,"Fungal Growth Rating, B. cinerea",[11]; vapor phase 0.04 μl/ml,0.0
same,"Fungal Growth Rating, B. cinerea",[11]; vapor phase 0.10 μl/ml,0.0
same,"Fungal Growth Rating, B. cinerea",[11]; vapor phase 0.40 μl/ml,0.0
